From patent US20260083742A1, “HOMOLOGOUS RECOMBINATION REPAIR DEFICIENCY (HRD) AS A PREDICTIVE BIOMARKER FOR TREATING CANCER WITH WEE1 INHIBITORS” (Zeno Management, Inc., priority 2023, published 2026)

Experiments:
[1] = tested on: 22RV1 (prostate cancer cell line) subcutaneous xenografts; assay: 22RV1 subcutaneous xenograft tumor growth inhibition; type: in vivo, CB17 SCID mice
Description: The prostate cancer cell line 22RV1 harbors a BRCA2 pathogenic mutation (HRD+). Briefly, 72 tumor-bearing mice were randomized and assigned into nine groups using a randomized block design based on their tumor volumes with eight mice per group. Each mouse was inoculated subcutaneously at the right flank with 22RV1 tumor cells in 0.2 mL mixture of Matrigel (5×10^6 cells/mouse). Treatments were started when the tumor size reached 199.94 mm^3 for tumor efficacy studies (Day 14 post inoculation). [table] Tumor size was measured twice weekly in two dimensions using caliper and expressed in mm3 using the formula: where a and b were long and short diameters of the tumor. The tumor size was used for calculations of T/C %. The T/C(%) was calculated according to the following formula: Two-way ANOVA followed by Bonferroni post-test was performed to compare tumor volumes among vehicle and other groups.

[2] = tested on: HBCx-9, HBCx-10 and HBCx-17 triple-negative breast cancer (TNBC) PDX models; assay: Anti-tumor efficacy in TNBC patient-derived xenograft models; type: in vivo, mice; conditions: HBCx-10 and HBCx-17 (HRD+) vs HBCx-9 (HRD-); azenosertib 60 mg/kg, niraparib 35 mg/kg
Source text: Treatments were initiated 28 days post implantation of the tumor cells. The study period ended 28 days after the start of treatment. [table]

[3] = Body weight loss and clinical observations in ovarian PDX study; type: in vivo
Description: Relative Body Weight (RBW), individual body weight and mean body weight loss percent were calculated for each measurement by dividing the body weight by the body weight at the start of treatment as described in Example 3.

[4] = tested on: MDA-MB-436 Ola^R (BRCA reversion) TNBC cell line; assay: In vitro activity (IC50) in olaparib-resistant MDA-MB-436; type: cell-based; conditions: Homo sapiens; MDA-MB-436 Ola^R; read-out: In vitro activity (IC50) Olaparib^R (BRCA reversion)
Description: Cells with BRCA reversion mutations may be considered HRD+due to genome instability (such as TAI, LST, LOH). BRCA reversion mutation is an established mechanism of resistance to both platinum-based chemotherapeutic drugs and PARP inhibitors. In vivo exploration of WEE1 inhibitors (azenosertib, adavosertib) and PARP inhibitors (niraparib, olaparib) was evaluated.
MDA-MB-436 PARP inhibitor-resistant lines were generated by long-term in vitro treatment with a PARP inhibitor that is olaparib (Ola^R) or niraparib (Nir^R).

[5] = tested on: MDA-MB-436 niraparib-resistant model; assay: MDA-MB-436 niraparib-resistant CDX model in vivo; conditions: azenosertib 80 mg/kg
Source text: MDA-MB-436 PARP inhibitor-resistant lines were generated by long-term in vitro treatment with a PARP inhibitor that is olaparib (Ola^R) or niraparib (Nir^R). Resistant cells were confirmed by sequencing to have BRCA1 reversion mutation. The parental MDA-MB-436 cell line remains sensitive to PARP inhibitors as expected (FIG. 5A), while the Nir^R (FIG. 5B) and Ola^R (FIG. 5C) MDA-MB-436 cell lines are no longer sensitive to PARP inhibitors but are sensitive to azenosertib. Azenosertib activity was further confirmed in the PARP inhibitor-resistant MDA-MB-436 CDX model in vivo. […] WEE1 inhibitor or PARP inhibitor treatment in the Parental TNBC animal model (without PARP inhibitor resistance) is shown in FIG. 5D.

[6] = tested on: HCC1937 PARP inhibitor-resistant TNBC xenograft; assay: HCC1937 TNBC xenograft tumor growth inhibition; type: in vivo, mice
Description: Anti-tumor activity of azenosertib monotherapy or in combination with olaparib was evaluated in the HCC1937 model in vivo in mice (FIG. 9), and Table 11 summarizes the groups and treatments. […] Treatment with monotherapy olaparib at 100 mg/kg QD confirmed HCC1937 resistance to the PARP inhibitor.

[7] = azenosertib 60 mg/kg p.o. qd × 5 3 cycle
[8] = azenosertib 80 mg/kg p.o. qd × 5 3 cycle
[9] = azenosertib 60 mg/kg and/or niraparib 35 mg/kg p.o., (5 days on, 2 days off) × 4

C=CCn1c(=O)c2cnc(Nc3ccc(N4CCN(C)CC4)cc3)nc2n1-c1ccc2c(n1)[C@@](O)(CC)CC2 [Azenosertib, azenosertib]
% TGI Day 5 [1, 7]: 54.08% | % TGI Day 8 [1, 7]: 32.68% | % TGI Day 12 [1, 7]: 44.02% | % TGI Day 15 [1, 7]: 26.61% | % TGI Day 19 [1, 7]: 14.55% | % TGI Day 5 [1, 8]: 38.26% | % TGI Day 8 [1, 8]: 23.80% | % TGI Day 12 [1, 8]: 26.16% | % TGI Day 15 [1, 8]: 19.47% | % TGI Day 19 [1, 8]: 38.13% | tumor growth inhibition in HRD+ models compared to the HRD- model [2]: increased tumor growth inhibition | Max. individual BWL [3, 9]: 7.6% | Max. mean BWL [3, 9]: 0.7% | tolerability (body weight data and clinical observations) ([3]; azenosertib at 60 mg/kg, niraparib at 35 mg/kg, single agents or in combination): well tolerated | IC50 [4]: 0.174 µM | tumor volume compared to the PARP inhibitor [5]: significant reduction in tumor volume | tumor growth inhibition ([6]; monotherapy azenosertib 60 mg/kg QD 5:2): 80% | tumor growth inhibition ([6]; monotherapy azenosertib 80 mg/kg QD 5:2): 89%
